According to PMC2896556 (Biochemistry, 2010):
Like-named read-outs stand apart in the source and are kept apart here.

Experiments:
RT subunit interactions = conditions: cited from earlier work
p66/p66 = conditions: cited from earlier work
p51/p51 = conditions: cited from earlier work
RT dimerization [1] = conditions: yeast-two hybrid; cited from earlier work
RT dimerization [2] = conditions: urea denaturation; cited from earlier work
p66 = p66 (Human immunodeficiency virus type 1 group M subtype B, UniProt P04585); parameters: species or system HIV-1; conditions: 3 μM p66, 25 μM NNRTI, 1 wk

CC(C)Nc1cccnc1N1CCN(C(=O)c2cc3cc(NS(C)(=O)=O)ccc3[nH]2)CC1 [delavirdine]
effect on RT subunit interactions (RT subunit interactions): little or no effect

O=C1Nc2ccc(Cl)cc2[C@@](C#CC2CC2)(C(F)(F)F)O1 [efavirenz]
enhancement of dimer formation (p66/p66): 50 fold
enhancement of dimer formation (p51/p51): 600 fold
effect on RT subunit interactions (RT subunit interactions): enhance subunit interactions

CC(C)(C)c1ccc(C(=O)NN=Cc2ccccc2O)cc1 [BBSH, (4-tert-butylbenzoyl)-2-hydroxy-1-salicylyl hydrazone]
effect on RT subunit interactions (RT subunit interactions): weaken subunit interactions

CC(C)(C)c1ccc(C(=O)NN=Cc2c(O)ccc3ccccc23)cc1 [BBNH, N-(4-tert-butylbenzoyl)-2-hydroxy-1-naphthaldehyde hydrazone]
effect on RT subunit interactions (RT subunit interactions): weaken subunit interactions

CCn1c(=O)c(C)cn([C@@H]2O[C@H](CO[Si](C)(C)C(C)(C)C)C3(OS(=O)(=O)C=C3N)[C@H]2O[Si](C)(C)C(C)(C)C)c1=O (stereo partly drawn) [TSAOe^3T, 1-(spiro{4”-amino-2”,2”-dioxo-1”,2”-oxathiole-5”,3′-[2′,5′-bis-O-(tert-butyldimethylsilyl)-β-D-ribofuranosyl]})-3-ethylthymine]
effect on RT subunit interactions (RT subunit interactions): weaken subunit interactions

Cc1ccnc2c1NC(=O)c1cccnc1N2C1CC1 [nevirapine]
effect on RT subunit interactions (RT subunit interactions): enhance subunit interactions
effect on RT dimerization (RT dimerization [1]): small enhancement of dimerization
effect on RT dimerization (RT dimerization [2]): no effect
effect on p66 dimerization (p66): enhance dimerization
